In PMC6115456, “PI3Ka-Akt1-mediated Prdm4 induction in adipose tissue increases energy expenditure, inhibits weight gain, and improves insulin resistance in diet-induced obese mice” (Cell Death & Disease, 2018):

Target: T1, PI3Kα (class I catalytic subunit p110α) (Homo sapiens, UniProt P42336)
T1 construct: gene PIK3CA
Test: PI3K ADP-Glo kinase assay (Promega) on purified PI3Kα; also […] inhibition at […] in a recombinant kinase panel
Assay type: biochemical

T1 sequence (P42336 whole entry): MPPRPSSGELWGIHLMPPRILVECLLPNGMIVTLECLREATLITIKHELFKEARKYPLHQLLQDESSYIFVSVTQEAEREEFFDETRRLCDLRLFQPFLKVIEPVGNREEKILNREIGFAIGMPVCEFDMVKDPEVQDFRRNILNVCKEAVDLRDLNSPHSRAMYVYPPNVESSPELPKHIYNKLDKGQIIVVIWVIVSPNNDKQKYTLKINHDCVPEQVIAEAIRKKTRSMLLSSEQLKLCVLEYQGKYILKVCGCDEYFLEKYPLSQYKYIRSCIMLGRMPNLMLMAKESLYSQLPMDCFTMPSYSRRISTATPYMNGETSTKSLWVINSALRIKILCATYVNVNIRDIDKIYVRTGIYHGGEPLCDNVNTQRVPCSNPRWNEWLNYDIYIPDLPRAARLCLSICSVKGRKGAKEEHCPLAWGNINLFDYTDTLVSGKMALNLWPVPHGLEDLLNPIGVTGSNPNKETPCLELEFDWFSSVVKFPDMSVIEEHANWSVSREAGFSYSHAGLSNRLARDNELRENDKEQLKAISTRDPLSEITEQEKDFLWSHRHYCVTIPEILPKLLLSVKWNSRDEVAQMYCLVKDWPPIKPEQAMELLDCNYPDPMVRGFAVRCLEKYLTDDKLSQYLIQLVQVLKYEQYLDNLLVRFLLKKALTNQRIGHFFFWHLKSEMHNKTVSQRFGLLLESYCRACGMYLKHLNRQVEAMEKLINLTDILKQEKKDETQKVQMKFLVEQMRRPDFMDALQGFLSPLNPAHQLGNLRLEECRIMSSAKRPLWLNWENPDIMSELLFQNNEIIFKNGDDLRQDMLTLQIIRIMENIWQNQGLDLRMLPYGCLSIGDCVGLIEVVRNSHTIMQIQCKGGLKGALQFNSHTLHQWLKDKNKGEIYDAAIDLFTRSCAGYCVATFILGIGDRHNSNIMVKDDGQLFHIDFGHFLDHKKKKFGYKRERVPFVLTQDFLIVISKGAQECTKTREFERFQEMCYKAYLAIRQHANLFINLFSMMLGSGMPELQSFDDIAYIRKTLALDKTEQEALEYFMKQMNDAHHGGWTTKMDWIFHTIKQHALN
T1 sequence (P27986 2-724 partner): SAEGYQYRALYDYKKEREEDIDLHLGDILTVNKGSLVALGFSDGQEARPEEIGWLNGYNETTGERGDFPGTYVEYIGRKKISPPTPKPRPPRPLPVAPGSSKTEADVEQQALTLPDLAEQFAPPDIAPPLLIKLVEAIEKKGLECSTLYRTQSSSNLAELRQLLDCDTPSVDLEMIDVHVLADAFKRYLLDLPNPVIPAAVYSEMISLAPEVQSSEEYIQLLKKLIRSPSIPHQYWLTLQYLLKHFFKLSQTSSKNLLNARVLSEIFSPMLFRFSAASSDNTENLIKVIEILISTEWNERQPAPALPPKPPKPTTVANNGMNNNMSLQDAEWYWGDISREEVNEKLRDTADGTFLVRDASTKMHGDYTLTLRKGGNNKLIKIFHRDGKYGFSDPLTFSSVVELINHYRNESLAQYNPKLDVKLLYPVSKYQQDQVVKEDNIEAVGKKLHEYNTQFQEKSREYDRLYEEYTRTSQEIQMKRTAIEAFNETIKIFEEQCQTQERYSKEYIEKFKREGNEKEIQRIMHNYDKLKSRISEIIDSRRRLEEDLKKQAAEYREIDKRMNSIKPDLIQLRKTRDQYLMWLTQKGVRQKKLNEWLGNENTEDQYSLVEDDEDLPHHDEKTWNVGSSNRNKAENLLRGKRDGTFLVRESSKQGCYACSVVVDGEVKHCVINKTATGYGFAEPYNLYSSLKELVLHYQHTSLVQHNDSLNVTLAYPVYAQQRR

- IC50: 6.4 µM
SMILES: O=C(/C=C/c1ccc(O)c(O)c1)c1ccc(O)cc1O [butein]
